The values that follow come from US20140249198A1, “MELATONIN AND ITS USE IN PREVENTING POSTOPERATIVE COMPLICATIONS” (NUTRI-FIT GMBH & CO., KG, priority 2004, published 2014).

Assay [1] deals with female Sprague Dawley rats. As to the kind of experiment: Partial liver resection with ischemia/reperfusion in rats, preoperative melatonin by gavage. The assay is classed as in vivo, rat. The protocol: Ischemia and subsequent reperfusion of organs and tissues induced by clamping of blood vessels to prevent excessive bleeding, are unavoidable during surgical procedures. Such a standard ischemia/reperfusion situation can be simulated by a partial hepatectomy in a clinically relevant rat surgical model.
In this animal model, female Sprague Dawley rats (200-220 g) undergo a median laparotomy followed by clamping of the right lateral liver lobe for 20 min resulting in a hypoxia in about 30% of the entire organ. After reperfusion of the ischemic tissue, the remaining 70% of the liver, the non-ischemic middle and left lateral liver lobes are surgically removed and the surgical incision is closed. During a follow up period of maximal 7 days the effects of ischemia/reperfusion are observed with respect to liver damage and survival.
In this rat model the operative trauma of performing a laparotomy introduces a first hypoxia in the liver. The subsequent partial clamping of the blood supply to the liver and the following partial resection of a large part of liver tissue results in additional ischemia. During the subsequent reperfusion the actual free radical-induced damage to the liver tissue occurs. This actual damage to many cells of the liver tissue in regions of the remaining parts of the organ is now determined by the release of enzymes such as liver transaminases, alkaline phosphatase after various time points following partial liver resection.
After reperfusion of the ischemic tissue, the remaining 70% of the liver, the non-ischemic middle and the left lateral liver lobes were surgically removed and the surgical incision was closed.
In this rat model the operative trauma of performing a laparotomy introduced a first hypoxia in the liver. […] During the subsequent reperfusion the actual free radical-induced damage to the liver tissue occurred. This actual damage to many cells of the liver tissue in regions of the remaining parts of the organ was now determined by the release of enzymes such as liver transaminases (AST, ALT) and alkaline phosphatase after various time points following partial liver resection.
Melatonin was administered in various concentrations (0, 10, 20, 50 mg/kg body weight) by gavage of a control (5% ethanol in water; 0 mg/kg body weight melatonin) or a melatonin-containing aqueous solution (5% ethanol) into the stomach of the 10 rats of each of the four groups 2 hours before the surgery.

Assay [2] concerns mice. Particulars: short term administration after surgery-induced hemorrhagic shock, mice subjected to septic challenge; cited from earlier work.
Assay [3] relates to rat middle cerebral artery occlusion model. As to conditions: pretreatment with melatonin; cited from earlier work.
In assay [4] the test system is neutrophils. As to conditions: in vitro; apoptosis delayed following hepatectomy; cited from earlier work.
The test system of assay [5] is neonates. As to conditions: treatment started within 3 hours after the end of surgery; cited from earlier work.
The mark [6] stands for this setting: 10, 20, 50 mg/kg body weight by gavage 2 hours before surgery, 3 and 8 h after partial liver resection, vs control, FIG. 1.

Turning to `COc1ccc2[nH]cc(CCNC(C)=O)c2c1` [Melatonin, N-acetyl-5-methoxytryptamin], the “survival after 7 days” value in assay [1] (10 mg/kg body weight preoperatively, vs control, FIG. 3) is given as “significant increase in survival”. The “alkaline phosphatase (ALP) activity (indicates regeneration of the liver)” value in assay [1] (50 mg/kg body weight preoperatively, 3, 8, 48 h and 1 week after partial liver resection, vs control, FIG. 2) is “increased ALP activity after 48 h reaching statistical significance after 1 week”. In assay [1] (setting [6]), the “level of alanine transferase (ALT)” value is “amelioration of the massive increase” and the “level of aspartate transferase (AST)” value was “amelioration of the massive increase”. For the same compound, the “hypoxia of liver tissue” value in assay [1] (preoperative application, partial liver resection in rats) is “reduces the increase in hypoxia of liver tissue”. For the same compound, the “extent of necrosis following ischemia/reperfusion of the liver” value in assay [1] (preoperative application, rats) is given as “reduces the extent of necrosis”. Also, in assay [2], the survival result is listed as “significantly improved survival”. In addition, the “volume of cerebral infarction” value in assay [3] is on record as “reduce the volume of cerebral infarction”. Further, in assay [4], the “apoptosis activity in neutrophils” value is on record as “enhances apoptosis activity in neutrophils”. In addition, in assay [5], the “clinical parameters of inflammation” value is “progressive reduction of clinical parameters of inflammation”.
